Test results published in the supplement of paper PMC10307832.

How the values were obtained:
Experiment in all cases: relative viability (nuclei count vs DMSO), 5 days (fraction); higher = more cells survive
[1] = compound: O=C(NCCCNc1nc(Nc2cccc(NC(=O)N3CCCC3)c2)ncc1I)c1cccs1 [BX 795] + C[C@@H](Oc1cc(-c2cnn(C3CCNCC3)c2)cnc1N)c1c(Cl)ccc(F)c1Cl [Crizotinib] (partner 1 µM)
Outline: (§1)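 Lung cancer cell lines were seeded in 1536-well plates and dosed by pin tool the next day, with either a single drug or a fixed anchor-drug dose combined with five library-drug doses (not always all listed) spaced in √10 steps. Five days later, one step fixed the cells and stained their nuclei (final 0.05% Triton X-100, 1% formaldehyde, 1 ug/ml Hoechst), and nuclei were counted on 4× images. Relative viability is the nuclei count in treated wells divided by the count in vehicle wells, and each value is the median of duplicate plates.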

[2] = compound: O=C(NCCCNc1nc(Nc2cccc(NC(=O)N3CCCC3)c2)ncc1I)c1cccs1 [BX 795] + COc1cc2c(Oc3ccc(NC(=O)C4(C(=O)Nc5ccc(F)cc5)CC4)cc3F)ccnc2cc1OCCCN1CCOCC1 [Foretinib] (partner 0.25 µM)
Outline: as §1

[3] = compound: O=C(NCCCNc1nc(Nc2cccc(NC(=O)N3CCCC3)c2)ncc1I)c1cccs1 [BX 795] + CS(=O)(=O)CCNCc1ccc(-c2ccc3ncnc(Nc4ccc(OCc5cccc(F)c5)c(Cl)c4)c3c2)o1 [Lapatinib] (partner 2 µM)
Outline: as §1

[4] = compound: O=C(NCCCNc1nc(Nc2cccc(NC(=O)N3CCCC3)c2)ncc1I)c1cccs1 [BX 795] + CS(=O)(=O)N1CCN(Cc2cc3nc(-c4cccc5[nH]ncc45)nc(N4CCOCC4)c3s2)CC1 [Pictilisib] (partner 1 µM)
Outline: as §1

[5] = compound: O=C(NCCCNc1nc(Nc2cccc(NC(=O)N3CCCC3)c2)ncc1I)c1cccs1 [BX 795] + CC(C)C[C@H](NC(=O)[C@H](Cc1ccccc1)NC(=O)c1cnccn1)B(O)O [Bortezomib] (partner 0.002 µM)
Outline: as §1

[6] = compound: O=C(NCCCNc1nc(Nc2cccc(NC(=O)N3CCCC3)c2)ncc1I)c1cccs1 [BX 795] + C[C@]1(O)C[C@@H](c2nc(-c3ccc4ccc(-c5ccccc5)nc4c3)c3c(N)nccn32)C1 [Linsitinib] (partner 1 µM)
Outline: as §1

[7] = compound: O=C(NCCCNc1nc(Nc2cccc(NC(=O)N3CCCC3)c2)ncc1I)c1cccs1 [BX 795] + Cc1nc(NC(=O)N2CCC[C@H]2C(N)=O)sc1-c1ccnc(C(C)(C)C(F)(F)F)c1 [Alpelisib] (partner 2 µM)
Outline: as §1

[8] = compound: O=C(NCCCNc1nc(Nc2cccc(NC(=O)N3CCCC3)c2)ncc1I)c1cccs1 [BX 795] + O=C(c1cc(Cc2n[nH]c(=O)c3ccccc23)ccc1F)N1CCN(C(=O)C2CC2)CC1 [Olaparib] (partner 8 µM)
Outline: as §1

[9] = compound: O=C(NCCCNc1nc(Nc2cccc(NC(=O)N3CCCC3)c2)ncc1I)c1cccs1 [BX 795] + CC1(C)CCC(c2ccc(Cl)cc2)=C(CN2CCN(c3ccc(C(=O)NS(=O)(=O)c4ccc(N[C@H](CCN5CCOCC5)CSc5ccccc5)c(S(=O)(=O)C(F)(F)F)c4)cc3)CC2)C1 [Navitoclax] (partner 0.5 µM)
Outline: as §1

[10] = compound: O=C(NCCCNc1nc(Nc2cccc(NC(=O)N3CCCC3)c2)ncc1I)c1cccs1 [BX 795]
Outline: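 Five library-drug doses spaced by √10 were pinned onto vehicle-anchored 1536-well plates of lung cancer cell lines that had been kept overnight at 37 °C. Cells went 5 days without medium change, then were fixed, permeabilised and Hoechst-stained together, imaged at 4× and counted by MetaXpress. Viability is the ratio of treated-well to vehicle-well nuclei, taken as a median over plates. Plates required control CV below 25% and at least one doubling.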

[11] = compound: O=C(NCCCNc1nc(Nc2cccc(NC(=O)N3CCCC3)c2)ncc1I)c1cccs1 [BX 795] + Cc1nc(Nc2ncc(C(=O)Nc3c(C)cccc3Cl)s2)cc(N2CCN(CCO)CC2)n1 [Dasatinib] (partner 0.075 µM)
Outline: as §1

[12] = compound: O=C(NCCCNc1nc(Nc2cccc(NC(=O)N3CCCC3)c2)ncc1I)c1cccs1 [BX 795] + CCNC(=O)c1noc(-c2cc(C(C)C)c(O)cc2O)c1-c1ccc(CN2CCOCC2)cc1 [Luminespib] (partner 0.01 µM)
Outline: as §1

[13] = compound: O=C(NCCCNc1nc(Nc2cccc(NC(=O)N3CCCC3)c2)ncc1I)c1cccs1 [BX 795] + Nc1nc2[nH]cc(CCc3ccc(C(=O)N[C@@H](CCC(=O)O)C(=O)O)cc3)c2c(=O)[nH]1 [Pemetrexed] (partner 0.2 µM)
Outline: as §1

[14] = compound: O=C(NCCCNc1nc(Nc2cccc(NC(=O)N3CCCC3)c2)ncc1I)c1cccs1 [BX 795] + N=C(N)NC(=N)NCCc1ccccc1 [Phenformin] (partner 250 µM)
Outline: as §1

[15] = compound: O=C(NCCCNc1nc(Nc2cccc(NC(=O)N3CCCC3)c2)ncc1I)c1cccs1 [BX 795] + COc1cccc2cc(-c3nc([C@H]4CC[C@H](C(=O)O)CC4)n4ncnc(N)c34)[nH]c12 [OSI-027] (partner 0.5 µM)
Outline: as §1

Cell Line: NCI-H1299
- relative viability ([1]; first compound 0.04 µM): 1
- relative viability ([1]; first compound 0.1265 µM): 0.933
- relative viability ([1]; first compound 0.4 µM): 1.01
- relative viability ([1]; first compound 1.265 µM): 0.674
- relative viability ([2]; first compound 0.04 µM): 1.13
- relative viability ([2]; first compound 0.1265 µM): 1.09
- relative viability ([2]; first compound 0.4 µM): 1.16
- relative viability ([2]; first compound 1.265 µM): 0.876
- relative viability ([3]; first compound 0.04 µM): 0.885
- relative viability ([3]; first compound 0.1265 µM): 0.977
- relative viability ([3]; first compound 0.4 µM): 1.02
- relative viability ([3]; first compound 1.265 µM): 0.798
- relative viability ([4]; first compound 0.04 µM): 0.759
- relative viability ([4]; first compound 0.1265 µM): 0.747
- relative viability ([4]; first compound 0.4 µM): 0.751
- relative viability ([4]; first compound 1.265 µM): 0.399
- relative viability ([5]; first compound 0.04 µM): 1.08
- relative viability ([5]; first compound 0.1265 µM): 1.01
- relative viability ([5]; first compound 0.4 µM): 1.06
- relative viability ([5]; first compound 1.265 µM): 0.938
- relative viability ([6]; first compound 0.04 µM): 0.983
- relative viability ([6]; first compound 0.1265 µM): 0.968
- relative viability ([6]; first compound 0.4 µM): 0.987
- relative viability ([6]; first compound 1.265 µM): 0.767
- relative viability ([7]; first compound 0.04 µM): 1.05
- relative viability ([7]; first compound 0.1265 µM): 1.09
- relative viability ([7]; first compound 0.4 µM): 1.07
- relative viability ([7]; first compound 1.265 µM): 1
- relative viability ([8]; first compound 0.04 µM): 1.02
- relative viability ([8]; first compound 0.1265 µM): 0.985
- relative viability ([8]; first compound 0.4 µM): 0.918
- relative viability ([8]; first compound 1.265 µM): 0.637
- relative viability ([9]; first compound 0.04 µM): 1.05
- relative viability ([9]; first compound 0.1265 µM): 0.996
- relative viability ([9]; first compound 0.4 µM): 1.06
- relative viability ([9]; first compound 1.265 µM): 0.926
- relative viability ([10]; 0.04 µM): 0.972
- relative viability ([10]; 0.1265 µM): 1.03
- relative viability ([10]; 0.4 µM): 1.05
- relative viability ([10]; 1.265 µM): 0.883

Cell Line: NCI-H1563
- relative viability ([11]; first compound 0.04 µM): 0.476
- relative viability ([11]; first compound 0.1265 µM): 0.429
- relative viability ([11]; first compound 0.4 µM): 0.439
- relative viability ([11]; first compound 1.265 µM): 0.405
- relative viability ([1]; first compound 0.04 µM): 0.852
- relative viability ([1]; first compound 0.1265 µM): 0.849
- relative viability ([1]; first compound 0.4 µM): 0.82
- relative viability ([1]; first compound 1.265 µM): 0.617
- relative viability ([12]; first compound 0.04 µM): 0.593
- relative viability ([12]; first compound 0.1265 µM): 0.472
- relative viability ([12]; first compound 0.4 µM): 0.47
- relative viability ([12]; first compound 1.265 µM): 0.447
- relative viability ([13]; first compound 0.04 µM): 0.977
- relative viability ([13]; first compound 0.1265 µM): 0.759
- relative viability ([13]; first compound 0.4 µM): 0.857
- relative viability ([13]; first compound 1.265 µM): 0.746
- relative viability ([2]; first compound 0.04 µM): 0.914
- relative viability ([2]; first compound 0.1265 µM): 1.04
- relative viability ([2]; first compound 0.4 µM): 0.925
- relative viability ([2]; first compound 1.265 µM): 0.848
- relative viability ([14]; first compound 0.04 µM): 0.679
- relative viability ([14]; first compound 0.1265 µM): 0.641
- relative viability ([14]; first compound 0.4 µM): 0.744
- relative viability ([14]; first compound 1.265 µM): 0.567
- relative viability ([3]; first compound 0.04 µM): 1.01
- relative viability ([3]; first compound 0.1265 µM): 1.01
- relative viability ([3]; first compound 0.4 µM): 1.05
- relative viability ([3]; first compound 1.265 µM): 0.785
- relative viability ([4]; first compound 0.04 µM): 0.689
- relative viability ([4]; first compound 0.1265 µM): 0.522
- relative viability ([4]; first compound 0.4 µM): 0.659
- relative viability ([4]; first compound 1.265 µM): 0.673
- relative viability ([5]; first compound 0.04 µM): 0.822
- relative viability ([5]; first compound 0.1265 µM): 0.844
- relative viability ([5]; first compound 0.4 µM): 0.993
- relative viability ([5]; first compound 1.265 µM): 0.752
- relative viability ([6]; first compound 0.04 µM): 1.36
- relative viability ([6]; first compound 0.1265 µM): 1.23
- relative viability ([6]; first compound 0.4 µM): 1.3
- relative viability ([6]; first compound 1.265 µM): 0.905
- relative viability ([15]; first compound 0.04 µM): 0.782
- relative viability ([15]; first compound 0.1265 µM): 0.749
- relative viability ([15]; first compound 0.4 µM): 0.821
- relative viability ([15]; first compound 1.265 µM): 0.67
- relative viability ([7]; first compound 0.04 µM): 0.964
- relative viability ([7]; first compound 0.1265 µM): 0.859
- relative viability ([7]; first compound 0.4 µM): 0.917
- relative viability ([7]; first compound 1.265 µM): 0.811
- relative viability ([10]; 0.04 µM): 1.08
- relative viability ([10]; 0.1265 µM): 0.942
- relative viability ([10]; 0.4 µM): 1.03
- relative viability ([10]; 1.265 µM): 0.814
